Measured values: PMC10590756, “Glutarate regulates T cell metabolism and anti-tumour immunity” (Nature Metabolism, 2023)

Legend:
[1] = test system: CD19^+ Raji cells; test: In vitro cytotoxicity and IFNγ secretion of CD19 CAR T cells; assay type: cell-based, human; conditions: T cells cultured 7 days with 500 µM DEG
Experimental: Secreted IFNγ levels of cultured cells were determined using an ELISA. Assays were performed with uncoated ELISA kits (catalogue no. 88-7316, Thermo Fisher Scientific), according to the manufacturer’s instructions. Absorbance was determined using a microplate reader (Sunrise, Tecan) at a wavelength of 450 nm.
Ten thousand B16F10-OVA or SKOV3 cells were seeded per well in 96-well plates and cocultured for a minimum of 14 h with varying ratios of mouse CD8^+ OT1 or human CD8^+RQR8^+ HER2 CAR T cells, respectively. T cells had been treated with or without DEG 7 days before the assay. Wells were washed twice with PBS to remove T cells and the number of remaining target cells was determined by culturing with 10 µg ml^−1 resazurin (catalogue no. R7017, Sigma-Aldrich) and measuring the fluorescence signal in a plate reader. Cytotoxicity was calculated relative to wells with no T cells added. Ten thousand Raji cells were cocultured for a minimum of 14 h with CD19 CAR T cells previously activated for 7 days and cultured with or without DEG. Cytotoxicity was assessed by flow cytometry using the ratio of live Raji cells to CountBright Absolute Counting Beads (catalogue no. C36950, Thermo Fisher Scientific). To determine specific cytotoxicity, data were normalized to the cytotoxicity of the vector-controlled transduced CD8 T cells of the respective donor.

[2] = test system: B16F10-OVA melanoma tumours; test: B16F10-OVA tumour growth and infiltration model; assay type: in vivo, C57BL/6J mice
Experimental: Seven to 10-week-old male C57BL/6J mice were inoculated subcutaneously with 1.0 × 10^6 B16F10-OVA. Animals were assigned randomly to each experimental group. Four days after inoculation, mice were treated with a peritoneal injection of 0.2 mg DEG (approximately 10 mg kg^−1). Treatment was repeated every 2–3 days until day 28. Tumour volume was measured every 2–3 days with electronic callipers until day 30. Peripheral blood was collected from the tail vein at day 7 and 14 days after tumour inoculation and analysed using flow cytometry. On day 14, tumours were dissected and dissociated using the Tumor Dissociation Kit (catalogue no. 130-095-929, Miltenyi Biotec), according to the manufacturer’s instructions. Spleen and the tumour-draining lymph node were mashed in cell strainers. The tumour, spleen and draining lymph node single-cell suspensions were stained with fluorochrome-labelled antibodies and analysed using flow cytometry. The tumour experiments using C57BL/6J mice were carried out in accordance with the ethical regulations of the UK Home Office and the maximal tumour burden of […] was not exceeded (mice were euthanized when tumour volume exceeded […]).

[3] = test system: human CD8^+ T cells; test: qPCR gene expression in CD8^+ T cells; assay type: cell-based; conditions: 500 µM DEG, 7 days
Experimental: Total RNA was extracted from isolated CD8^+ T cells (RNeasy Kit, QIAGEN); 300 ng of RNA were used for complementary DNA synthesis (First-Strand cDNA Synthesis Kit, Invitrogen). Quantitative PCR with reverse transcription (RT–qPCR) was performed with SYBR green (Roche) in a StepOnePlus system (Applied Biosystems). All kits were used according to the manufacturer’s instructions. Samples were run in technical duplicates. Primers were designed with NCBI primer blast and are listed in Supplementary Table 5.

[4] = 14 days after tumour inoculation, relative to controls

SMILES: CCOC(=O)CCCC(=O)OCC [DEG, Diethyl glutarate]
- cytotoxicity of CD19^+ CAR T cells against CD19^+ Raji cells [1]: increased cytotoxicity
- interferon-γ (IFNγ) secretion of CD19^+ CAR T cells ([1]; coculture with Raji cells): secreted more
- survival ([2]; 10 mg kg^−1 DEG intraperitoneally every 48–72 h, 1,000 mm^3 tumour volume as threshold): significantly increased survival
- tumour growth ([2]; 10 mg kg^−1 DEG intraperitoneally every 48–72 h from day 4): significantly slowed tumour growth
- peripheral blood CD8^+ T cells [2, 4]: significant increase
- tumour-infiltrating CD8^+ T cells [2, 4]: significant increase
- other immune populations ([2]; blood, tumour, spleen, tumour-draining lymph node, day 14): No changes
- circulating B cells ([2]; day 14): slight decrease
- exhaustion-associated markers (TIM3, PD1, LAG3, TOX) in tumour-infiltrating CD4^+ or CD8^+ cells ([2]; day 14): no changes
- memory-associated markers (CD62L and CD44) in tumour-infiltrating CD4^+ or CD8^+ cells ([2]; day 14): no changes
- carnitine palmitoyltransferase 1A (CPT1A) gene expression [3]: increased levels
- expression of HIF target genes [3]: increased expression
- fatty acid binding protein (FABP) gene expression [3]: increased levels
- fatty acid synthase (FASN) gene expression [3]: increased levels
- mRNA levels of PDHK1 [3]: increased
